Laboratory results reported in ChEMBL document CHEMBL1201862, “PubChem BioAssay data set” (2004).
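All cell lines were grown in 96-well plates and treated with compound for 48 hours. GI50 is the concentration that inhibits growth by half.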 Calls of active or inactive are those of the source. No stated cut-off is given here; in the data, active = GI50 up to about 1.1 µM and inactive = higher.

Legend:
Test in all cases: DTP human tumour cell line panel, 48 h
A498 = test system: A498
A549 = test system: A549
CCRF-CEM = test system: CCRF-CEM
DLD-1 = test system: DLD-1
DMS-273 = test system: DMS-273
HCT-15 = test system: HCT-15
HOP-18 = test system: HOP-18
KM-20L2 = test system: KM-20L2
LOX IMVI = test system: LOX IMVI
M14 = test system: M14
SK-MEL-5 = test system: SK-MEL-5
SW-620 = test system: SW-620
TK-10 = test system: TK-10
UACC-257 = test system: UACC-257
XF498 = test system: XF498
HOP-92 = test system: HOP-92
DU-145 = test system: DU-145
Hs-578T = test system: Hs-578T
MDA-MB-435 = test system: MDA-MB-435
PC-3 = test system: PC-3

Structure (SMILES)	GI50 (A498)	GI50 (A549)	GI50 (CCRF-CEM)	GI50 (DLD-1)	GI50 (DMS-273)	GI50 (HCT-15) [µM]	GI50 (HOP-18)	GI50 (KM-20L2)	GI50 (LOX IMVI)	GI50 (M14)	GI50 (SK-MEL-5)	GI50 (SW-620)	GI50 (TK-10)	GI50 (UACC-257)	GI50 (XF498)	GI50 (HOP-92)	GI50 (DU-145)	GI50 (Hs-578T)	GI50 (MDA-MB-435)	GI50 (PC-3)
C=CCNC1=NC(=O)C(CC(=O)Nc2cccc(Cl)c2)S1 (centres undefined)	> 100 µM (inactive)	> 100 µM (inactive)	> 100 µM (inactive)	> 100 µM (inactive)	> 100 µM (inactive)	> 100	> 100 µM (inactive)	> 100 µM (inactive)	> 100 µM (inactive)	> 100 µM (inactive)	> 100 µM (inactive)	> 100 µM (inactive)	> 100 µM (inactive)	> 100 µM (inactive)	> 100 µM (inactive)					
[O-][n+]1ccccc1S [PYRITHIONE ZINC]	0.796 µM (active)	1.55 µM (inactive)	0.0331 µM (active)	0.115 µM (active)	0.366 µM (active)	0.577	3.78 µM (inactive)	1.04 µM (active)	1.4 µM (inactive)	1.25 µM (inactive)	1.22 µM (inactive)	0.161 µM (active)	10.1 µM (inactive)	2.09 µM (inactive)	0.226 µM (active)	3.24 µM (inactive)				
O=NN(CCF)C(=O)NC1CCSCC1	> 100 µM (inactive)	> 100 µM (inactive)	> 100 µM (inactive)	> 100 µM (inactive)	> 100 µM (inactive)	> 100	> 100 µM (inactive)	> 100 µM (inactive)	> 100 µM (inactive)		> 100 µM (inactive)	> 100 µM (inactive)		> 100 µM (inactive)	< 0.01 µM (active)	> 100 µM (inactive)				
CC1Cc2c(N)nc(N3CCOCC3)nc2NC1=O (centres undefined)		> 100 µM (inactive)	> 100 µM (inactive)	> 100 µM (inactive)	> 100 µM (inactive)	> 100	> 100 µM (inactive)	> 100 µM (inactive)	> 100 µM (inactive)	> 100 µM (inactive)	> 100 µM (inactive)	> 100 µM (inactive)	> 100 µM (inactive)	> 100 µM (inactive)	0.463 µM (active)					
CC1C=CC(=O)C(n2cc(F)c(=O)[nH]c2=O)O1 (centres undefined)		24.4 µM (inactive)	8.89 µM (inactive)	18.6 µM (inactive)	21.4 µM (inactive)	16.6	10.8 µM (inactive)	21.3 µM (inactive)	15.8 µM (inactive)	18.1 µM (inactive)	17.9 µM (inactive)	17.6 µM (inactive)	18.7 µM (inactive)	16.4 µM (inactive)	15.1 µM (inactive)	17.5 µM (inactive)				
Cc1ccc2c(c1)C1(OC(=O)c3ccccc31)c1ccc(F)cc1O2 (centres undefined)		48.9 µM (inactive)	31.8 µM (inactive)	61.8 µM (inactive)			> 100 µM (inactive)	44.1 µM (inactive)	39.6 µM (inactive)	28.6 µM (inactive)	32.7 µM (inactive)	34.6 µM (inactive)	> 100 µM (inactive)	31 µM (inactive)	82.8 µM (inactive)	16.1 µM (inactive)				
CCCCCCC/C=C1\CCC(CN(C)C)C1=O (centres undefined)	19.9 µM (inactive)	22.6 µM (inactive)	3.03 µM (inactive)	7.1 µM (inactive)		8.36	17.2 µM (inactive)	19.1 µM (inactive)	6.85 µM (inactive)	9.71 µM (inactive)	18.7 µM (inactive)	6.19 µM (inactive)	7.48 µM (inactive)	15.1 µM (inactive)	20.5 µM (inactive)	17.3 µM (inactive)	14.7 µM (inactive)	3.88 µM (inactive)	5.66 µM (inactive)	14.5 µM (inactive)
Cc1ccc(S(=O)(=O)NC(=O)Nc2nc(Cl)cc(Cl)n2)cc1	> 100 µM (inactive)	> 100 µM (inactive)	> 100 µM (inactive)	> 100 µM (inactive)			> 100 µM (inactive)	> 100 µM (inactive)	> 100 µM (inactive)	> 100 µM (inactive)	> 100 µM (inactive)	> 100 µM (inactive)	> 100 µM (inactive)	19.2 µM (inactive)	> 100 µM (inactive)	99.3 µM (inactive)				
COc1nc(O)c(N)c(NC2OC(CO)C(O)C(O)C2O)n1 (centres undefined)	> 100 µM (inactive)	> 100 µM (inactive)	> 57.8 µM (inactive)	> 100 µM (inactive)	> 100 µM (inactive)	> 100	> 100 µM (inactive)	> 100 µM (inactive)	> 100 µM (inactive)		> 100 µM (inactive)	> 100 µM (inactive)		> 100 µM (inactive)	> 100 µM (inactive)	> 100 µM (inactive)				
